Test results published in BigSolDB 2.1.

For `O=C1C[C@@H](c2ccc(O)cc2)Oc2cc(O)cc(O)c21`, which solubility (mole fraction) (in ethyl acetate, 288.15 K) is on record?
Its solubility (mole fraction) is 0.00998.

And the solubility (mole fraction) (in ethyl acetate, 293.15 K)?
The solubility (mole fraction) was 0.0133.

What about the solubility (mole fraction) (in ethyl acetate, 298.15 K) of the same compound?
Its solubility (mole fraction) is 0.0154.

And the solubility (mole fraction) (in ethyl acetate, 303.15 K)?
The solubility (mole fraction) was 0.0171.

What about the solubility (mole fraction) (in ethyl acetate, 308.15 K) of the same compound?
Its solubility (mole fraction) is 0.0191.

What about the solubility (mole fraction) (in ethyl acetate, 313.15 K) of the same compound?
The solubility (mole fraction) was 0.0215.

And the solubility (mole fraction) (in ethyl acetate, 318.15 K)?
The solubility (mole fraction) was 0.0244.

And the solubility (mole fraction) (in ethyl acetate, 323.15 K)?
Its solubility (mole fraction) is 0.027.

And the solubility (mole fraction) (in ethyl acetate, 328.15 K)?
The solubility (mole fraction) was 0.0293.

What about the solubility (mole fraction) (in isopropanol, 288.15 K) of the same compound?
Its solubility (mole fraction) is 0.0101.

What about the solubility (mole fraction) (in isopropanol, 293.15 K) of the same compound?
Its solubility (mole fraction) is 0.0116.

And the solubility (mole fraction) (in isopropanol, 298.15 K)?
The solubility (mole fraction) was 0.0141.

What about the solubility (mole fraction) (in isopropanol, 303.15 K) of the same compound?
Its solubility (mole fraction) is 0.0161.

What about the solubility (mole fraction) (in isopropanol, 308.15 K) of the same compound?
Its solubility (mole fraction) is 0.0185.

And the solubility (mole fraction) (in isopropanol, 313.15 K)?
Its solubility (mole fraction) is 0.0204.

What about the solubility (mole fraction) (in isopropanol, 318.15 K) of the same compound?
Its solubility (mole fraction) is 0.0218.

What about the solubility (mole fraction) (in isopropanol, 323.15 K) of the same compound?
The solubility (mole fraction) was 0.0252.

And the solubility (mole fraction) (in isopropanol, 328.15 K)?
The solubility (mole fraction) was 0.0264.

And the solubility (mole fraction) (in methanol, 288.15 K)?
Its solubility (mole fraction) is 0.00875.

What about the solubility (mole fraction) (in methanol, 293.15 K) of the same compound?
Its solubility (mole fraction) is 0.0094.

And the solubility (mole fraction) (in methanol, 298.15 K)?
Its solubility (mole fraction) is 0.00991.

And the solubility (mole fraction) (in methanol, 303.15 K)?
The solubility (mole fraction) was 0.0105.

And the solubility (mole fraction) (in methanol, 308.15 K)?
Its solubility (mole fraction) is 0.0114.

What about the solubility (mole fraction) (in methanol, 313.15 K) of the same compound?
Its solubility (mole fraction) is 0.0144.

What about the solubility (mole fraction) (in methanol, 318.15 K) of the same compound?
Its solubility (mole fraction) is 0.0173.

What about the solubility (mole fraction) (in methanol, 323.15 K) of the same compound?
The solubility (mole fraction) was 0.0187.

What about the solubility (mole fraction) (in methanol, 328.15 K) of the same compound?
The solubility (mole fraction) was 0.0205.

What about the solubility (mole fraction) (in n-butanol, 288.15 K) of the same compound?
Its solubility (mole fraction) is 0.000972.

What about the solubility (mole fraction) (in n-butanol, 293.15 K) of the same compound?
The solubility (mole fraction) was 0.00137.

What about the solubility (mole fraction) (in n-butanol, 298.15 K) of the same compound?
Its solubility (mole fraction) is 0.00175.

And the solubility (mole fraction) (in n-butanol, 303.15 K)?
The solubility (mole fraction) was 0.00215.

And the solubility (mole fraction) (in n-butanol, 308.15 K)?
The solubility (mole fraction) was 0.00259.

What about the solubility (mole fraction) (in n-butanol, 313.15 K) of the same compound?
The solubility (mole fraction) was 0.00299.

And the solubility (mole fraction) (in n-butanol, 318.15 K)?
The solubility (mole fraction) was 0.00344.

And the solubility (mole fraction) (in n-butanol, 323.15 K)?
The solubility (mole fraction) was 0.00388.

What about the solubility (mole fraction) (in n-butanol, 328.15 K) of the same compound?
Its solubility (mole fraction) is 0.0042.

And the solubility (mole fraction) (in n-hexane, 288.15 K)?
Its solubility (mole fraction) is 2.92e-06.

What about the solubility (mole fraction) (in n-hexane, 293.15 K) of the same compound?
Its solubility (mole fraction) is 3.7e-06.

What about the solubility (mole fraction) (in n-hexane, 298.15 K) of the same compound?
The solubility (mole fraction) was 4.71e-06.

What about the solubility (mole fraction) (in n-hexane, 303.15 K) of the same compound?
Its solubility (mole fraction) is 5.42e-06.

What about the solubility (mole fraction) (in n-hexane, 308.15 K) of the same compound?
The solubility (mole fraction) was 6.46e-06.

And the solubility (mole fraction) (in n-hexane, 313.15 K)?
Its solubility (mole fraction) is 7.17e-06.

What about the solubility (mole fraction) (in n-hexane, 318.15 K) of the same compound?
Its solubility (mole fraction) is 7.73e-06.

What about the solubility (mole fraction) (in n-hexane, 323.15 K) of the same compound?
The solubility (mole fraction) was 8.69e-06.

What about the solubility (mole fraction) (in n-hexane, 328.15 K) of the same compound?
The solubility (mole fraction) was 9.09e-06.

For `C[C@@H]1O[C@@H](O[C@H]2[C@H](Oc3cc(O)c4c(c3)O[C@H](c3ccc(O)cc3)CC4=O)O[C@H](CO)[C@@H](O)[C@@H]2O)[C@H](O)[C@H](O)[C@H]1O`, which solubility (mole fraction) (in ethyl acetate, 288.15 K) is on record?
Its solubility (mole fraction) is 0.000184.

What about the solubility (mole fraction) (in ethyl acetate, 293.15 K) of the same compound?
Its solubility (mole fraction) is 0.000248.

What about the solubility (mole fraction) (in ethyl acetate, 298.15 K) of the same compound?
The solubility (mole fraction) was 0.00031.

What about the solubility (mole fraction) (in ethyl acetate, 303.15 K) of the same compound?
Its solubility (mole fraction) is 0.00035.

What about the solubility (mole fraction) (in ethyl acetate, 308.15 K) of the same compound?
Its solubility (mole fraction) is 0.000404.

And the solubility (mole fraction) (in ethyl acetate, 313.15 K)?
The solubility (mole fraction) was 0.000458.

And the solubility (mole fraction) (in ethyl acetate, 318.15 K)?
Its solubility (mole fraction) is 0.000513.

What about the solubility (mole fraction) (in ethyl acetate, 323.15 K) of the same compound?
The solubility (mole fraction) was 0.000594.

What about the solubility (mole fraction) (in ethyl acetate, 328.15 K) of the same compound?
The solubility (mole fraction) was 0.000646.

What about the solubility (mole fraction) (in isopropanol, 288.15 K) of the same compound?
The solubility (mole fraction) was 1.26e-05.

And the solubility (mole fraction) (in isopropanol, 293.15 K)?
The solubility (mole fraction) was 1.59e-05.

And the solubility (mole fraction) (in isopropanol, 298.15 K)?
Its solubility (mole fraction) is 2.1e-05.

What about the solubility (mole fraction) (in isopropanol, 303.15 K) of the same compound?
The solubility (mole fraction) was 2.46e-05.

And the solubility (mole fraction) (in isopropanol, 308.15 K)?
Its solubility (mole fraction) is 2.97e-05.

And the solubility (mole fraction) (in isopropanol, 313.15 K)?
The solubility (mole fraction) was 3.34e-05.

And the solubility (mole fraction) (in isopropanol, 318.15 K)?
Its solubility (mole fraction) is 3.75e-05.

What about the solubility (mole fraction) (in isopropanol, 323.15 K) of the same compound?
Its solubility (mole fraction) is 4.29e-05.

And the solubility (mole fraction) (in isopropanol, 328.15 K)?
The solubility (mole fraction) was 4.79e-05.

What about the solubility (mole fraction) (in methanol, 288.15 K) of the same compound?
Its solubility (mole fraction) is 0.00158.

And the solubility (mole fraction) (in methanol, 293.15 K)?
The solubility (mole fraction) was 0.00168.

And the solubility (mole fraction) (in methanol, 298.15 K)?
The solubility (mole fraction) was 0.00197.

And the solubility (mole fraction) (in methanol, 303.15 K)?
The solubility (mole fraction) was 0.00224.

And the solubility (mole fraction) (in methanol, 308.15 K)?
Its solubility (mole fraction) is 0.00264.

What about the solubility (mole fraction) (in methanol, 313.15 K) of the same compound?
The solubility (mole fraction) was 0.00291.

What about the solubility (mole fraction) (in methanol, 318.15 K) of the same compound?
Its solubility (mole fraction) is 0.00322.

What about the solubility (mole fraction) (in methanol, 323.15 K) of the same compound?
Its solubility (mole fraction) is 0.00359.

And the solubility (mole fraction) (in methanol, 328.15 K)?
Its solubility (mole fraction) is 0.00389.

What about the solubility (mole fraction) (in n-butanol, 288.15 K) of the same compound?
The solubility (mole fraction) was 4.85e-05.

What about the solubility (mole fraction) (in n-butanol, 293.15 K) of the same compound?
The solubility (mole fraction) was 6.34e-05.

And the solubility (mole fraction) (in n-butanol, 298.15 K)?
The solubility (mole fraction) was 7.46e-05.

What about the solubility (mole fraction) (in n-butanol, 303.15 K) of the same compound?
The solubility (mole fraction) was 0.000105.

What about the solubility (mole fraction) (in n-butanol, 308.15 K) of the same compound?
The solubility (mole fraction) was 0.000157.

What about the solubility (mole fraction) (in n-butanol, 313.15 K) of the same compound?
Its solubility (mole fraction) is 0.000218.

And the solubility (mole fraction) (in n-butanol, 318.15 K)?
Its solubility (mole fraction) is 0.000285.

And the solubility (mole fraction) (in n-butanol, 323.15 K)?
Its solubility (mole fraction) is 0.000345.

And the solubility (mole fraction) (in n-butanol, 328.15 K)?
The solubility (mole fraction) was 0.000391.

What about the solubility (mole fraction) (in n-hexane, 288.15 K) of the same compound?
Its solubility (mole fraction) is 9.97e-08.

What about the solubility (mole fraction) (in n-hexane, 293.15 K) of the same compound?
The solubility (mole fraction) was 1.39e-07.

What about the solubility (mole fraction) (in n-hexane, 298.15 K) of the same compound?
Its solubility (mole fraction) is 1.75e-07.

What about the solubility (mole fraction) (in n-hexane, 303.15 K) of the same compound?
Its solubility (mole fraction) is 2.21e-07.

And the solubility (mole fraction) (in n-hexane, 308.15 K)?
Its solubility (mole fraction) is 2.63e-07.

What about the solubility (mole fraction) (in n-hexane, 313.15 K) of the same compound?
The solubility (mole fraction) was 3.12e-07.

What about the solubility (mole fraction) (in n-hexane, 318.15 K) of the same compound?
The solubility (mole fraction) was 3.6e-07.

And the solubility (mole fraction) (in n-hexane, 323.15 K)?
The solubility (mole fraction) was 4.04e-07.

What about the solubility (mole fraction) (in n-hexane, 328.15 K) of the same compound?
The solubility (mole fraction) was 4.55e-07.
